Like-named read-outs stand apart in the source and are kept apart here.
Tests used:
HL60 = test: Cell proliferation (CellTiter-Glo, 72 hour), HL60; assay type: cell-based; conditions: Homo sapiens, HL-60, blood cancer cell line, read-out: HL60 inhibition of proliferation (IC50)
THP-1 = test: Cell proliferation (CellTiter-Glo, 72 hour), THP-1; assay type: cell-based; conditions: Homo sapiens, blood cancer cell line, read-out: THP-1 inhibition of proliferation (IC50)
MV4-11 = test: Cell proliferation (CellTiter-Glo, 72 hour), MV4-11; assay type: cell-based; conditions: Homo sapiens, blood cancer cell line, read-out: MV4-11 inhibition of proliferation (IC50)
RS4-11 = test: Cell proliferation (CellTiter-Glo, 72 hour), RS4-11; assay type: cell-based; conditions: Homo sapiens, blood cancer cell line, read-out: RS4-11 inhibition of proliferation (IC50)
hTERT-HME1 = test: Cell proliferation (CellTiter-Glo, 72 hour), hTERT-HME1; assay type: cell-based; conditions: breast cancer cell lines table, read-out: hTERT-HME1 inhibition of proliferation (IC50)
MDA-MB231 = test: Cell proliferation (CellTiter-Glo, 72 hour), MDA-MB231; assay type: cell-based; conditions: Homo sapiens, MDA-MB-231, breast cancer cell line, read-out: MDA-MB231 inhibition of proliferation (IC50)
MCF7 = test: Cell proliferation (CellTiter-Glo, 72 hour), MCF7; assay type: cell-based; conditions: Homo sapiens, breast cancer cell line, read-out: MCF7 inhibition of proliferation (IC50)
MCF10A = test: Cell proliferation (CellTiter-Glo, 72 hour), MCF10A; assay type: cell-based; conditions: Homo sapiens, MCF-10A, breast cancer cell lines table, read-out: MCF10A inhibition of proliferation (IC50)
T47D = test: Cell proliferation (CellTiter-Glo, 72 hour), T47D; assay type: cell-based; conditions: Homo sapiens, breast cancer cell line, read-out: T47D inhibition of proliferation (IC50)
SKBR3 = test: Cell proliferation (CellTiter-Glo, 72 hour), SKBR3; assay type: cell-based; conditions: Homo sapiens, SK-BR-3, breast cancer cell line, read-out: SKBR3 inhibition of proliferation (IC50)
A673 = test: Cell proliferation (CellTiter-Glo, 72 hour), A673; assay type: cell-based; conditions: Homo sapiens, Ewing's sarcoma cell line, read-out: A673 inhibition of proliferation (IC50)
Hs822T = test: Cell proliferation (CellTiter-Glo, 72 hour), Hs822T; assay type: cell-based; conditions: Ewing's sarcoma cell line, read-out: Hs822T inhibition of proliferation (IC50)
Hs863T = test: Cell proliferation (CellTiter-Glo, 72 hour), Hs863T; assay type: cell-based; conditions: Ewing's sarcoma cell line, read-out: Hs863T inhibition of proliferation (IC50)
RD-ES = test: Cell proliferation (CellTiter-Glo, 72 hour), RD-ES; assay type: cell-based; conditions: Ewing's sarcoma cell line, read-out: RD-ES inhibition of proliferation (IC50)
SK-ES-1 = test: Cell proliferation (CellTiter-Glo, 72 hour), SK-ES-1; assay type: cell-based; conditions: Homo sapiens, SK-ES1, Ewing's sarcoma cell line, read-out: SK-ES-1 inhibition of proliferation (IC50)
SAOS = test: Cell proliferation (CellTiter-Glo, 72 hour), SAOS; assay type: cell-based; conditions: osteosarcoma cell line, read-out: SAOS inhibition of proliferation (IC50)
MNNG-HOS Cl #5 = test: Cell proliferation (CellTiter-Glo, 72 hour), MNNG-HOS Cl #5; assay type: cell-based; conditions: osteosarcoma cell line, read-out: MNNG-HOS Cl#5 inhibition of proliferation (IC50)
143B = test: Cell proliferation (CellTiter-Glo, 72 hour), 143B; assay type: cell-based; conditions: Homo sapiens, osteosarcoma cell line, read-out: 143B inhibition of proliferation (IC50)
CDK7 = biological target: T1, CDK7 (Homo sapiens, UniProt P50613); test: Adapta kinase assay (Life Technologies), CDK7; assay type: biochemical
T1 construct: purchased Life Technologies (assay service)

MLK3 = biological target: T2, MLK3 (Homo sapiens, UniProt Q16584); test: LanthaScreen Eu kinase assay (Life Technologies), MLK3; assay type: binding; conditions: Table 2; read-out: MLK3 (calculated IC50)
T2 construct: purchased Life Technologies (assay service)

Jurkat cells = test: Cell proliferation (CellTiter-Glo, 72 hour), Jurkat; assay type: cell-based; conditions: Homo sapiens, blood cancer cell line
CDK5/p25 = CDK5/p25 (Homo sapiens, UniProt Q00535); test: Z'-Lyte kinase assay (Life Technologies), CDK5/p25
Procedure: Compounds of the invention were assayed for activity against a variety of different kinases at Life Technologies™ (Grand Island, N.Y.) using their commercially available Adapta® (for CDK7, CDK9/cyclin T1, and IRAK1 kinases), Z′-Lyte® (for CDK1, CDK2, CDK5/p25, CDK5/p35, JNK1 and JNK2 kinases), and LanthaScreen Eu® (for CDK8, CDK9/cyclin K and MLK3) kinase assay services. Test compounds were tested at 100 nM and 1 μM final concentrations in 1% DMSO against all kinases except CDK7. For CDK7, test compounds were tested at concentrations ranging from 10 μM to 0.514 nM in a series of 3-fold serial dilutions. […] The co-factors used for each kinase in the assays were as follows: CDK1: cyclin B; CDK2: cyclin A; CDK5: p25 or p35 as indicated; CDK7: cyclin H and MNAT1; CDK8: cyclin C; CDK9: cyclin K or cyclin T1 as indicated; IRAK1: Histone H3 (1-20) peptide; JNK1: none required; JNK2: none required; MLK3: none required.

[1] = Table 1C, co-factors cyclin H and MNAT1, read-out: CDK7 IC50
[2] = Table 2, co-factors cyclin H and MNAT1, read-out: CDK7 (calculated IC50)

T1 sequence (P50613 whole entry): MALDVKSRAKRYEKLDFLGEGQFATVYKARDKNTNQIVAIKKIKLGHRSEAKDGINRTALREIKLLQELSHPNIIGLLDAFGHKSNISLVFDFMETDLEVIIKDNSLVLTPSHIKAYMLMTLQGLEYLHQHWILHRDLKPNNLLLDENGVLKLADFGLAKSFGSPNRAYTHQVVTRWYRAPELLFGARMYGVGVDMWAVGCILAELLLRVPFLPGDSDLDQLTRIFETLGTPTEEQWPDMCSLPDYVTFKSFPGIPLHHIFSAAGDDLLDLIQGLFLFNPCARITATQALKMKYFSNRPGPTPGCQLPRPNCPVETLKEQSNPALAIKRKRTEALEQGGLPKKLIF
T1 sequence (P51946 whole entry partner): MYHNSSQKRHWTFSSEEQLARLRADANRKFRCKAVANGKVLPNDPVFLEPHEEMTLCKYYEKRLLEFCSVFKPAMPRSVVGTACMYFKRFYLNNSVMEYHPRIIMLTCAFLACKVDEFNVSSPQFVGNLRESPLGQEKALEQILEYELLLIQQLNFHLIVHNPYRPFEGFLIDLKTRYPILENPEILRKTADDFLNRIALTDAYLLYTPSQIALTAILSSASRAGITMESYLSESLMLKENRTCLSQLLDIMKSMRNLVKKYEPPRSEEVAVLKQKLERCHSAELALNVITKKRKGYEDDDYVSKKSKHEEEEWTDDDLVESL
T1 sequence (P51948 whole entry partner): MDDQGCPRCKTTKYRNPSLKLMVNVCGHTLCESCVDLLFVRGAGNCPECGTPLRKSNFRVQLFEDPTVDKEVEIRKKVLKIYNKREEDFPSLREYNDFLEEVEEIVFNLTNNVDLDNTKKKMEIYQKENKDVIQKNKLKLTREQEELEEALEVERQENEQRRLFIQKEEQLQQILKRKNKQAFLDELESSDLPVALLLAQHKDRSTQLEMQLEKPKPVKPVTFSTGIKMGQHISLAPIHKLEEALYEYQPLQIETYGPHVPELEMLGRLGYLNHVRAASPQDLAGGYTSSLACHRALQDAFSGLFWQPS
CDK5/p25, sequence (Q00535 whole entry): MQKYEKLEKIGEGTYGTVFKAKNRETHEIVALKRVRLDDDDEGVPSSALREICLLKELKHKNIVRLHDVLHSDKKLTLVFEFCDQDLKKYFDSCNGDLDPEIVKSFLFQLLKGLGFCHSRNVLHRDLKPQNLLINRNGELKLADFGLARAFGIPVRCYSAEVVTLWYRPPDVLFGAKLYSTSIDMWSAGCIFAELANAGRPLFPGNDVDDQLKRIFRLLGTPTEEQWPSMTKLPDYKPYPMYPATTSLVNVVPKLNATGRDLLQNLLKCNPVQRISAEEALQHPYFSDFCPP
CDK5/p25, sequence (Q15078 99-307 partner limits assumed): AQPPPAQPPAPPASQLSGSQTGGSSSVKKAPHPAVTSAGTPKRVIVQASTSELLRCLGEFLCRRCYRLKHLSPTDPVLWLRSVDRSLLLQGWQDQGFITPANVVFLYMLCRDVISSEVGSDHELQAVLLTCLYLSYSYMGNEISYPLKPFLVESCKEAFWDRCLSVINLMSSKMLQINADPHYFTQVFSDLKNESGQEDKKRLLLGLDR
T2 sequence (Q16584 whole entry): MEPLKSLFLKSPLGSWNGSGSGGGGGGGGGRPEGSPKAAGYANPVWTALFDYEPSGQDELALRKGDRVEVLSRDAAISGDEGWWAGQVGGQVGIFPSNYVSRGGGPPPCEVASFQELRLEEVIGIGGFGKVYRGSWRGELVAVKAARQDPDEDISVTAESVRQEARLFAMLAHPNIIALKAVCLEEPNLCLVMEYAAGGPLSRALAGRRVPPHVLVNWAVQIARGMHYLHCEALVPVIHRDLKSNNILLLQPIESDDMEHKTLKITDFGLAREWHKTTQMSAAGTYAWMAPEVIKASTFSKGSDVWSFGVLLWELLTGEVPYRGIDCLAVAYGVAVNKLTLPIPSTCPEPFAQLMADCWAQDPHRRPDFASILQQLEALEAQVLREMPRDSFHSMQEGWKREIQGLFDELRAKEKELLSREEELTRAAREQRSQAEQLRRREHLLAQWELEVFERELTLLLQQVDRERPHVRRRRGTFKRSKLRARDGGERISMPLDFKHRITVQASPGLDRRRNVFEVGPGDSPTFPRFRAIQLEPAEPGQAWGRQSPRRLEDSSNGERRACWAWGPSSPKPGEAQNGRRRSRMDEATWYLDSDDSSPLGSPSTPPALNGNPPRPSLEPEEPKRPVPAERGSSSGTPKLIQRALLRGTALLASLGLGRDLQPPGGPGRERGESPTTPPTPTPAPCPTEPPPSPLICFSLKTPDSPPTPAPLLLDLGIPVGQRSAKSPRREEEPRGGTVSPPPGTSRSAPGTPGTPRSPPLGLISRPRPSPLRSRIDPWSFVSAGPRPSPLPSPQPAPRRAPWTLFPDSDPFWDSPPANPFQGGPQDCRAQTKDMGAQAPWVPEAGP

Question: `CC(C)[C@]12O[C@H]1[C@@H]1O[C@]13[C@]1(O[C@H]1C[C@H]1C4=C(CC[C@@]13C)C(=O)OC4)[C@@H]2O` [Triptolide, triptolide, reference compound] was tested. Which IC50 (HL60) did it give?
Answer: < 500 nM

Question: What about the IC50 (THP-1) of the same compound?
Answer: < 500 nM

Question: What about the IC50 (MV4-11) of the same compound?
Answer: < 500 nM

Question: What about the IC50 (RS4-11) of the same compound?
Answer: < 500 nM

Question: What about the IC50 (hTERT-HME1) of the same compound?
Answer: < 500 nM

Question: And the IC50 (MDA-MB231)?
Answer: < 500 nM

Question: What about the IC50 (MCF7) of the same compound?
Answer: < 500 nM

Question: And the IC50 (MCF10A)?
Answer: < 500 nM

Question: And the IC50 (T47D)?
Answer: > 5000 nM

Question: And the IC50 (SKBR3)?
Answer: < 500 nM

Question: And the IC50 (A673)?
Answer: < 500 nM

Question: And the IC50 (Hs822T)?
Answer: 500 to 5000 nM

Question: And the IC50 (Hs863T)?
Answer: > 5000 nM

Question: What about the IC50 (RD-ES) of the same compound?
Answer: < 500 nM

Question: What about the IC50 (SK-ES-1) of the same compound?
Answer: < 500 nM

Question: What about the IC50 (SAOS) of the same compound?
Answer: < 500 nM

Question: What about the IC50 (MNNG-HOS Cl #5) of the same compound?
Answer: < 500 nM

Question: What about the IC50 (143B) of the same compound?
Answer: < 500 nM

Question: `CN(C)C/C=C/C(=O)Nc1ccc(C(=O)N[C@@H]2CCC[C@@H](Nc3ncc(Cl)c(-c4c[nH]c5ccccc45)n3)C2)cc1` [compound 104] was tested. Which IC50 (CDK7; [1]) did it give?
Answer: < 100 nM

Question: What about the IC50 (CDK7; [2]) of the same compound?
Answer: < 100 nM

Question: And the IC50 (MLK3)?
Answer: > 1000 nM

Question: And the IC50 (Jurkat cells)?
Answer: < 500 nM

Question: What about the IC50 (CDK5/p25) of the same compound?
Answer: > 1000 nM

Question: Which IC50 (HL60) does the source give for `CN1CC[C@H](c2c(O)cc(O)c3c(=O)cc(-c4ccccc4Cl)oc23)[C@H](O)C1` [Flavopiridol, flavopiridol, reference compound] here?
Answer: < 500 nM

Question: And the IC50 (THP-1)?
Answer: < 500 nM

Question: What about the IC50 (MV4-11) of the same compound?
Answer: < 500 nM

Question: And the IC50 (RS4-11)?
Answer: < 500 nM

Question: And the IC50 (hTERT-HME1)?
Answer: < 500 nM

Question: What about the IC50 (MDA-MB231) of the same compound?
Answer: < 500 nM

Question: What about the IC50 (MCF7) of the same compound?
Answer: 500 to 5000 nM

Question: And the IC50 (MCF10A)?
Answer: < 500 nM

Question: What about the IC50 (T47D) of the same compound?
Answer: > 5000 nM

Question: And the IC50 (SKBR3)?
Answer: < 500 nM

Question: And the IC50 (A673)?
Answer: < 500 nM

Question: What about the IC50 (Hs822T) of the same compound?
Answer: > 5000 nM

Question: What about the IC50 (Hs863T) of the same compound?
Answer: > 5000 nM

Question: And the IC50 (RD-ES)?
Answer: < 500 nM

Question: And the IC50 (SK-ES-1)?
Answer: < 500 nM

Question: And the IC50 (SAOS)?
Answer: < 500 nM

Question: And the IC50 (MNNG-HOS Cl #5)?
Answer: 500 to 5000 nM

Question: And the IC50 (143B)?
Answer: 500 to 5000 nM

Question: With `CN(C)C/C=C/C(=O)Nc1ccc(C(=O)NC2CCCC(Nc3ncc(Cl)c(-c4c[nH]c5ccccc45)n3)C2)c(F)c1` (centres unmarked) [compound 125] as the compound, how does the IC50 (CDK7; [1]) read?
Answer: < 100 nM

Question: And the IC50 (Jurkat cells)?
Answer: < 500 nM

Question: Which IC50 (CDK7; [1]) does the source give for `C=CC(=O)Nc1ccc(C(=O)N[C@H]2CCC[C@@H](Nc3ncc(F)c(-c4c[nH]c5ccccc45)n3)C2)cc1` [Compound 137, 4-acrylamido-N-((1S,3R)-3-(5-fluoro-4-(1H-indol-3-yl)pyrimidin-2-ylamino)cyclohexyl)benzamide] here?
Answer: 100 to 1000 nM

Question: What about the IC50 (Jurkat cells) of the same compound?
Answer: < 500 nM

Question: For `C=CC(=O)Nc1ccc(C(=O)N[C@H]2CC[C@@H](Nc3ncc(Cl)c(-c4c[nH]c5ccccc45)n3)CC2)cc1` [Compound 147], which IC50 (CDK7; [1]) is on record?
Answer: < 1000 nM

Question: And the IC50 (Jurkat cells)?
Answer: < 500 nM

Question: With `CN(C)C/C=C/C(=O)Nc1ccc(CN[C@H]2CCC[C@@H](Nc3ncc(Cl)c(-c4c[nH]c5ccccc45)n3)C2)cc1` [Compound 129, (E)-N-(4-(((1S,3R)-3-(5-chloro-4-(1H-indol-3-yl)pyrimidin-2-ylamino)cyclohexylamino)methyl)phenyl)-4-(dimethylamino)but-2-enamide] as the compound, how does the IC50 (CDK7; [1]) read?
Answer: < 100 nM

Question: And the IC50 (Jurkat cells)?
Answer: < 500 nM

Question: `CN(C)C/C=C/C(=O)Nc1ccc(C(=O)N[C@@H]2CCC[C@H](Nc3ncc(Cl)c(-c4c[nH]c5ccccc45)n3)C2)cc1` [compound 101] was tested. Which IC50 (CDK7; [1]) did it give?
Answer: 100 to 1000 nM

Question: What about the IC50 (CDK7; [2]) of the same compound?
Answer: 100 to 1000 nM

Question: And the IC50 (MLK3)?
Answer: > 1000 nM

Question: What about the IC50 (Jurkat cells) of the same compound?
Answer: 500 to 5000 nM

Question: What about the IC50 (CDK5/p25) of the same compound?
Answer: > 1000 nM

Question: For `Cc1noc(C)c1-c1nc(N[C@@H]2CCC[C@H](NC(=O)c3ccc(NC(=O)/C=C/CN(C)C)cc3)C2)ncc1Cl` [Compound 144], which IC50 (CDK7; [1]) is on record?
Answer: 100 to 1000 nM

Question: What about the IC50 (Jurkat cells) of the same compound?
Answer: < 500 nM

Question: `CN(C)C/C=C/C(=O)Nc1ccc(C(=O)N[C@@H]2C[C@H](F)C[C@H](Nc3ncc(Cl)c(-c4c[nH]c5ccccc45)n3)C2)cc1` [Compound 120, N-((1S,3R,5R)-3-(5-chloro-4-(1H-indol-3-yl)pyrimidin-2-ylamino)-5-fluorocyclohexyl)-4-((E)-4-(dimethylamino)but-2-enamido)benzamide] was tested. Which IC50 (CDK7; [1]) did it give?
Answer: 100 to 1000 nM

Question: And the IC50 (Jurkat cells)?
Answer: 500 to 5000 nM

Question: For `CN(C)C/C=C/C(=O)Nc1cccc(C(=O)NC2CCC(Nc3ncc(Cl)c(-c4c[nH]c5ccccc45)n3)CC2)c1` (centres unmarked) [compound 140], which IC50 (CDK7; [1]) is on record?
Answer: < 100 nM

Question: What about the IC50 (Jurkat cells) of the same compound?
Answer: < 500 nM

Question: Which results are given for `C=C(C)C(=O)Nc1ccc(C(=O)N[C@H]2CCC[C@@H](Nc3ncc(Cl)c(-c4c[nH]c5ccccc45)n3)C2)cc1` [Compound 113, N-((1S,3R)-3-(5-chloro-4-(1H-indol-3-yl)pyrimidin-2-ylamino)cyclohexyl)-4-methacrylamidobenzamide]?
Answer: IC50 (CDK7; [1]): 100 to 1000 nM; IC50 (Jurkat cells): 500 to 5000 nM

Question: `CN(C)C/C=C/C(=O)Nc1ccc(C(=O)N[C@H]2CCC[C@@H](Nc3ncc(C#N)c(-c4c[nH]c5ccccc45)n3)C2)cc1` [Compound 117, N-((1S,3R)-3-(5-cyano-4-(1H-indol-3-yl)pyrimidin-2-ylamino)cyclohexyl)-4-((E)-4-(dimethylamino)but-2-enamido)benzamide] was tested. Which IC50 (CDK7; [1]) did it give?
Answer: < 100 nM

Question: What about the IC50 (Jurkat cells) of the same compound?
Answer: < 500 nM

Question: Which IC50 (CDK7; [1]) does the source give for `CN(C)C/C=C/C(=O)Nc1ccc(C(=O)NC2CC(O)CC(Nc3ncc(Cl)c(-c4c[nH]c5ccccc45)n3)C2)cc1` (racemic) [Compound 109, (+/−)-N-(-3-(5-chloro-4-(1H-indol-3-yl)pyrimidin-2-ylamino)-5-hydroxycyclohexyl)-4-((E)-4-(dimethylamino)but-2-enamido)benzamide] here?
Answer: < 100 nM

Question: And the IC50 (Jurkat cells)?
Answer: < 500 nM

Question: How did the IC50 (CDK7; [1]) turn out when `CN(C)C/C=C/C(=O)Nc1ccc(C(=O)NC23CCCC(Nc4ncc(Cl)c(-c5c[nH]c6ccccc56)n4)(C2)C3)cc1` [Compound 121, (E)-N-(5-(5-chloro-4-(1H-indol-3-yl)pyrimidin-2-ylamino)bicyclo[3.1.1]heptan-1-yl)-4-(4-(dimethylamino)but-2-enamido)benzamide] was run?
Answer: < 100 nM

Question: What about the IC50 (Jurkat cells) of the same compound?
Answer: < 500 nM
